Measured values: patent US11730717B1, “Melanin-inspired antimicrobial” (The Board of Regents for the Oklahoma Agricultural and …, priority 2020, dated 2023)
“And” between values parts separate entries of the source, which are not always exact repeats. Equal entries are not always repeated. “Also recorded” adds a separate entry of the source. Where two headings read alike, the source gives them in different places.

Key:
[1] = tested on: Enterococcus faecalis (E. faecalis); test: MIC by broth microdilution; assay type: cell-based
Description: (§1) The methicillin resistant Staphylococcus aureus (MRSA) and Pseudomonas aeruginosa (PA) strains used in this study are clinical isolates obtained from an adult CF patient at the Cystic Fibrosis Clinic at the OU Children's Hospital (Oklahoma City, Okla.). Escherichia coli (E. coli) and Enterococcus faecalis (E. faecalis) were obtained from American Type Culture Collection (ATCC). The strains were grown overnight with shaking at 37° C. (220 RPM) in 15 mL of Luria-Bertani (LB) broth. The overnight culture was sub-cultured the next day before use for the MIC experiments. All sub-cultures consisted of 1 mL of the overnight culture, mixed with 10 mL of Mueller Hinton broth. The working stock of the EIPE-1 and DBI was prepared by dissolving 1 mg of each in 1 mL of DMSO.
(§2) The minimum inhibitory concentrations (MICs) were determined by the broth microdilution method, following the guidelines of the Clinical and Laboratory Standards Institute (CLSI). Two-fold serial dilutions of EIPE-1, DBI, and Arm (starting with 1 mg/mL) were prepared in a 100 μL volume in 96-well microtiter plates. The dilution series included DMSO as a negative control. The bacterial culture (900 μL) was normalized to an OD600 of 0.2 and was then added to each well. Plates were incubated with shaking at 220 RPM at 37° C., and the MIC was determined based on the lowest concentration at which no visible growth of the bacterial isolate was observed.
(§3) In order to determine the MIC of EIPE-1 on MRSA, a culture of MRSA was grown overnight in Mueller Hinton broth (MHB) at 37° C., sub-cultured by a 1/100 dilution into MHB and dispensed into a 96 well culture block (900 μL of diluted culture in each well). To each well either DMSO or a serial dilution of EIPE-1 was added, then the culture was grown for 18 h at 37° C. The next day each well was tested for either growth or inhibition of growth by measuring of the OD^600 of the resulting culture. […] For comparison, the MIC of EIPE-1 was also determined against E. faecalis (8 μg/mL, 9 μM), confirming activity against Gram-positive bacteria.

[2] = tested on: methicillin resistant Staphylococcus aureus (MRSA) clinical isolate; test: MIC by broth microdilution; assay type: cell-based; conditions: Staphylococcus aureus, MRSA, 18 h, clinical isolate of MRSA from an adult CF patient; broth culture, 18 h at 37° C.; read-out: minimum inhibitory concentration (MIC)
Description: as §1, §2, §3

[3] = tested on: Pseudomonas aeruginosa (PA); test: Comparison with Methicillin and Gentamicin, recoverable CFU; assay type: cell-based; conditions: compared with Methicillin and Gentamicin treatment
Description: To determine CFUs of PA and MRSA after exposure to DMSO, DBI, EIPE-1, Gentamicin or Methicillin, 10-fold serial dilutions were prepared in 96-well micro plates using multichannel pipettes. For each dilution, 25 ptL of each sample was pipetted onto a plate containing agar medium and incubated for 18 h at 37° C. The number of colonies for each dilution were counted and used to back calculate the number of bacteria per mL (CFU/mL) in each original bacterial culture.
EIPE-1 antimicrobial activity against MRSA and PA was compared to that of Methicillin and Gentamicin treatment. Bacterial cultures were grown, normalized and then exposed to either DBI, DMSO (solvent control), EIPE-1, Methicillin or Gentamicin (FIG. 3). […] This is highly significant and novel as methicillin resistance is a huge problem in hospitals and patient treatment worldwide. […] Gram-negative bacteria like PA have an outer membrane covered with lipopolysaccharides that protects the bacteria from antibiotics, dyes, and detergents from penetrating the bacterial cell.

[4] = tested on: Escherichia coli (E. coli); test: Antimicrobial activity against E. coli; assay type: cell-based
Description: as §1
as §2, with “The bacterial culture (900 μL) was normalized to an OD600 of 0.2 and was then added to each well.” left out

[5] = tested on: P. moltocida P-1581; test: MIC and MBC values (Table 2); assay type: cell-based; conditions: Pasteurella, P1581
[6] = tested on: E. faecalis; test: MIC and MBC values (Table 2); assay type: cell-based, Enterococcus faecalis; conditions: repeated determinations
[7] = tested on: Candida albicans strain SC5314; test: Antifungal MIC assay; assay type: cell-based; conditions: for MIC: Candida albicans
Description: Cryptococcus neoformans serotype A strain H99 as well as Candida ablicans strain SC5314, were readily available in the lab. The stock of cells is stored at −80° C. to preserve the fungi and prevent contamination. The cells were grown and maintained in yeast extract-peptone-dextrose (YPD) media (Difco). Cryptococcus or Candida cells were incubated in YPD broth for 18 hrs at 30° C., in a shaking incubator. After the incubation period, they were washed three times in sterile phosphate-buffered saline (PBS) to remove all remaining residue of YPD. The cells were then quantified by using trypan blue dye exclusion in a hemocytometer.
C. albicans were suspended in RPMI with MOPS, 0.165M, at a concentration of 0.5×10^3 cells/mL. RPMI Mops media was added to a 96-well plate in a volume of 100 μL to every well, with the exception of column 1. An additional 80 μL of RPMI MOPS was added to column 4 for a total of 180 μL/per well. EIPE-1 was added to columns 2 and 4 with a volume of 20 μL at a concentration of 1 mg/mL. Contents were mixed, then serially diluted 100 μL down the plate until column 11. The last 100 μL was discarded, leaving column 12 blank. C. albicans was added at a volume of 100 μL per well from column 4 to column 12, so the final volume of the wells was 200 μL. Plates were incubated at 35° C. in a humid incubator for 48 hrs.

[8] = tested on: Candida isolates from the airways of CF patients; test: MIC against Candida clinical isolates; assay type: cell-based; conditions: range over multiple Candida isolates from CF patients (FIG. 8)
Description: EIPE-1 was evaluated against multiple Candida isolates from the airways of CF patients.

With `COC(=O)c1cc2c(C#Cc3ccc(OCCC[N+](C)(C)C)cc3)c(OC)c(OC)c(C#Cc3ccc(OCCC[N+](C)(C)C)cc3)c2n1C` [EIPE-1, 3,3′-((((5,6-dimethoxy-2-(methoxycarbonyl)-1-methyl-1H-indole-4,7-diyl)bis(ethyne-2,1-diyl))bis(4,1-phenylene))bis(oxy))bis(N,N,N-trimethylpropan-1-aminium) iodide] the MIC [1] was 8 µg/mL and 9 µM, the MIC [2] was 16 µg/mL and 17.1 µM and the “activity against PA” value [3] was “does not appear to have activity; also recorded: did not display any activity”. For the same molecule, the “activity against E. coli” value [4] was “did not display any activity”, the MBC [5] was 64 µg/mL and the MIC [5] was 64 µg/mL. For the same molecule, the MIC ([6]; Enterococcus faecalis, read-out: MIC) was 1 µg/mL, the “MIC” value [6] was 2.000 µg/mL and the “Minimum inhibitory concentration (MIC) for the isolate of C. albicans” value ([7]; 35° C., 48 hrs, RPMI with MOPS) was 2.705 ± 0.3962 µg/mL. It also gave an MIC ([7]; SC5314, 48 h, 35° C., 48 hrs, RPMI with MOPS, read-out: Minimum inhibitory concentration (MIC) for the isolate of C. albicans) of 2.71 µg/mL, an MIC ([7]; SC5314, across seven experiments, read-out: Candida MIC) of 2.46 µg/mL and an MIC [8] of 4 to 11 µg/mL.
